For 24 molecules, IC50 results are on record in US20240343704A1, “HALO-SUBSTITUTED AMINO PYRIDINE COMPOUNDS AS INHIBITORS OF THE HAEMATOPOIETIC PROGENITOR KINASE 1 (HPK1)” (priority 2021, published 2024).

Counter-ions that a name gives are not always drawn.

One experiment deals with Lck (h) (Homo sapiens, UniProt P06239). In words: Lck Human  Kinase Enzymatic Radiometric Assay. The class given is biochemical. The settings on record: read-out: Lck IC50 nM Range*. Here is the method: Lck (h) is incubated with 50 mM Tris pH 7.5, 0.1 mM EGTA, 0.1 mM Na3VO4, 250 uM KVEKIGEGTYGVVYK (Cdc2 peptide), 10 mM MgAcetate and [gamma-33P]-ATP (specific activity and concentration as required). The reaction is initiated by the addition of the Mg/ATP mix. After incubation for 40 minutes at RT, the reaction is stopped by the addition of phosphoric acid to a concentration of 0.5%. 10 uL of the reaction is then spotted onto a P30 filtermat and washed four times for 4 minutes in 0.425% phosphoric acid and once in methanol prior to drying and scintillation counting. For more details on the kinase assay procedures see: Gao, Y. et. al.; Biochem J., 451 (2): 313-328, 2013.

Experiment [1] has as its target T1, Recombinant (1-346) HPK1 (h) (Homo sapiens, UniProt Q92918).
T1 construct: Recombinant (1-346) HPK1 (h) is incubated with 8 mM MOPS pH 7.0
T1 sequence (Q92918 1-346): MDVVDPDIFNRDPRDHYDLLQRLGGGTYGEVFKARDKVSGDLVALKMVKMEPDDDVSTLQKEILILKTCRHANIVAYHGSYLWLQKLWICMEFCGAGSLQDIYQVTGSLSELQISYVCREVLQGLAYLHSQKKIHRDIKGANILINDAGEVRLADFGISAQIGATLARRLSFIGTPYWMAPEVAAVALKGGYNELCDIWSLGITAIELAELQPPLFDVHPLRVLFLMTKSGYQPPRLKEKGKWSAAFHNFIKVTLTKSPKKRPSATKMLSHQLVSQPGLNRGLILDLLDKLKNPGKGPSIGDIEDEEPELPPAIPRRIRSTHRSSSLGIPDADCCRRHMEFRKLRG
In words: HPK1 Human STE Kinase Enzymatic Radiometric Assay. The class given is biochemical. The conditions noted are these: read-out: HPK1 IC50 nM Range*. Here is the method:
A stock solution of 10 mM of test compound is prepared in DMSO. The compound plate was prepared by 3-fold and 9-point serial dilutions. […] The reaction is initiated by The addition of the Mg/ATP mix. After incubation for 40 minutes at RT, the reaction is stopped by the addition of phosphoric acid to a concentration of 0.5%.

Sequence of Lck (h) (P06239 whole entry): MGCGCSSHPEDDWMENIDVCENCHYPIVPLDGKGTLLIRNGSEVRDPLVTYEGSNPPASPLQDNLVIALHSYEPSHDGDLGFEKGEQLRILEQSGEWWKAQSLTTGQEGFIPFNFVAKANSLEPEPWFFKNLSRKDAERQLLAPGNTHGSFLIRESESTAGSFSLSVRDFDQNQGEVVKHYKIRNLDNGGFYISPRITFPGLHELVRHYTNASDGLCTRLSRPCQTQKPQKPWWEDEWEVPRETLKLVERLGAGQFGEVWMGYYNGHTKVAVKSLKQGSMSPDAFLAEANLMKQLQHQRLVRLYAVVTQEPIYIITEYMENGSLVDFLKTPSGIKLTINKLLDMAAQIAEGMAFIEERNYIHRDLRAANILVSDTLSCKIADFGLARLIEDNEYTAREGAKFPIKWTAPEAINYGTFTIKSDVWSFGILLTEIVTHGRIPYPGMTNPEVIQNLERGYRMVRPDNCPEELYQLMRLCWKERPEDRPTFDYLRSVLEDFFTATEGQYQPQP

For `C[C@H]1CN(C)CCN1c1ccc(-c2cc(-c3ccc4c(c3)CCNC4=O)c(N)nc2F)cc1` [I-282, (S)-6-(2-amino-5-(4-(2,4-dimethylpiperazin-1-yl)phenyl)-6-fluoropyridin-3-yl)-3,4-dihydroisoquinolin-1(2H)-one], the IC50 at Lck (h) is above 1000 nM; in experiment [1], 0.1 to 10 nM.
Regarding `C[C@@H]1CN(c2cc(F)c(-c3cc(-c4ccc5c(c4)CCNC5=O)c(N)nc3F)cc2[N+](=O)[O-])C[C@H](C)N1C` [I-250, 6-(2-amino-6-fluoro-5-(2-fluoro-5-nitro-4-((3R,5S)-3,4,5-trimethylpiperazin-1-yl)phenyl)pyridin-3-yl)-3,4-dihydroisoquinolin-1(2H)-one formate], the 50% inhibitory concentration (IC50) was above 1000 nM at Lck (h) and 11 to 100 nM in experiment [1].
Regarding `Nc1nc(F)c(-c2ccc(O[C@H]3CCCNC3)cc2)cc1-c1ccc2c(c1)CCNC2=O` [I-94, (S)-6-(2-amino-6-fluoro-5-(4-(piperidin-3-yloxy)phenyl)pyridin-3-yl)-3,4-dihydroisoquinolin-1(2H)-one], the half-inhibitory concentration (IC50) on Lck (h) is above 1000 nM; in experiment [1], 0.1 to 10 nM.
On the same counts, the results for `CN1C[C@@H]2C[C@H]1CN2c1ccc(-c2cc(-c3ccc4c(c3)CCNC4=O)c(N)nc2F)cc1` [I-18, 6-(2-amino-6-fluoro-5-(4-(5-methyl-2,5-diazabicyclo[2.2.1]heptan-2-yl)phenyl)pyridin-3-yl)-3,4-dihydroisoquinolin-1(2H)-one] are above 1000 nM and 0.1 to 10 nM.
Regarding `CC(C)N1CCN(c2ccc(-c3cc(-c4cc5c(cc4F)C(=O)NCC5)c(N)nc3F)cc2)CC1` [I-95, 6-(2-amino-6-fluoro-5-(4-(4-isopropylpiperazin-1-yl)phenyl)pyridin-3-yl)-7-fluoro-3,4-dihydroisoquinolin-1(2H)-one], the half-inhibitory concentration (IC50) at Lck (h) is above 1000 nM; in experiment [1] it was 0.1 to 10 nM.
The like results for `CN(C)Cc1cc(-c2cc(-c3cc(F)c4c(c3)CCNC4=O)c(N)nc2F)ccc1C1CCOCC1` [I-436, 6-(2-amino-5-(3-((dimethylamino)methyl)-4-(tetrahydro-2H-pyran-4-yl)phenyl)-6-fluoropyridin-3-yl)-8-fluoro-3,4-dihydroisoquinolin-1(2H)-one] were, in that order, above 1000 nM and 0.1 to 10 nM.
`Cc1cc(-c2cc(-c3ccc4c(c3)CCNC4=O)c(N)nc2F)cc2c1CCN(C)C2` [I-434, 6-(2-amino-5-(2,5-dimethyl-1,2,3,4-tetrahydroisoquinolin-7-yl)-6-fluoropyridin-3-yl)-3,4-dihydroisoquinolin-1(2H)-one]: the concentration for half-maximal inhibition (IC50) on Lck (h) is above 1000 nM; in experiment [1], 0.1 to 10 nM.
The like results for `CN1CCC(c2ccc(-c3cc(-c4cc5c(cc4F)C(=O)NCC5)c(N)nc3Cl)cc2)CC1` [I-233, 6-(2-amino-6-chloro-5-(4-(1-methylpiperidin-4-yl)phenyl)pyridin-3-yl)-7-fluoro-3,4-dihydroisoquinolin-1(2H)-one] were, in that order, above 1000 nM and 11 to 100 nM.
Turning to `Nc1nc(F)c(-c2ccc(N3CCN4CCOCC4C3)cc2)cc1-c1ccc2c(c1)CCNC2=O` (stereo not drawn) [I-23, 6-(2-amino-6-fluoro-5-(4-(hexahydropyrazino[2,1-c][1,4]oxazin-8(1H)-yl)phenyl)pyridin-3-yl)-3,4-dihydroisoquinolin-1(2H)-one], the IC50 on Lck (h) was above 1000 nM; in experiment [1], 0.1 to 10 nM.
On to `Cc1c(N)cncc1-c1cc(-c2ccc3c(c2)CCNC3=O)c(N)nc1F` [I-234, 6-(5,6-diamino-2-fluoro-4′-methyl-[3,3′-bipyridin]-5-yl)-3,4-dihydroisoquinolin-1(2H)-one 2,2,2-trifluoroacetate], for which the IC50 (at Lck (h); in experiment [1]) was above 1000 nM throughout.
Take `C[C@@H]1CCCN1c1ccc(-c2cc(-c3ccc4c(c3)CCNC4=O)c(N)nc2F)cc1` [I-46, (R)-6-(2-amino-6-fluoro-5-(4-(2-methylpyrrolidin-1-yl)phenyl)pyridin-3-yl)-3,4-dihydroisoquinolin-1(2H)-one]: the IC50 at Lck (h) is above 1000 nM; in experiment [1], 11 to 100 nM.
As for `Nc1nc(F)c(-c2ccc(OC3CCNCC3)c(F)c2F)cc1-c1ccc2c(c1)CCNC2=O` [I-148, 6-(2-amino-5-(2,3-difluoro-4-(piperidin-4-yloxy)phenyl)-6-fluoropyridin-3-yl)-3,4-dihydroisoquinolin-1(2H)-one], the IC50 at Lck (h) was above 1000 nM; in experiment [1] it was 11 to 100 nM.
With `CC(C)[C@H]1CN(c2ccc(-c3cc(-c4ccc5c(c4)CCNC5=O)c(N)nc3Cl)cc2)CCO1` [I-136, (S)-6-(2-amino-6-chloro-5-(4-(2-isopropylmorpholino)phenyl)pyridin-3-yl)-3,4-dihydroisoquinolin-1(2H)-one], the IC50 at Lck (h) is above 1000 nM; in experiment [1], 101 to 1000 nM.
The like results for `CC(=O)N1CC(F)(c2ccc(-c3cc(-c4ccc5c(c4)CCNC5=O)c(N)nc3F)cc2)C1` [I-342, 6-(5-(4-(1-acetyl-3-fluoroazetidin-3-yl)phenyl)-2-amino-6-fluoropyridin-3-yl)-3,4-dihydroisoquinolin-1(2H)-one] were, in that order, above 1000 nM and 0.1 to 10 nM.
On the same counts, the results for `C[C@@H]1COCCN1c1ccc(-c2cc(-c3ccc4c(c3)CCNC4=O)c(N)nc2F)c(F)c1` [I-108, (R)-6-(2-amino-6-fluoro-5-(2-fluoro-4-(3-methylmorpholino)phenyl)pyridin-3-yl)-3,4-dihydroisoquinolin-1(2H)-one] are above 1000 nM and 11 to 100 nM.
The like results for `Nc1nc(F)c(-c2ccc(N3CCN(CC4CC4)CC3)cc2)cc1-c1ccc2c(=O)[nH]ccc2c1` [I-374, 6-(2-amino-5-(4-(4-(cyclopropylmethyl)piper-azin-1-yl)phenyl)-6-fluoropyridin-3-yl)isoquinolin-1(2H)-one] were, in that order, above 1000 nM and 0.1 to 10 nM.
`CC(C)N1CCc2ccc(-c3cc(-c4ccc5c(c4)CCNC5=O)c(N)nc3F)cc2C1` [I-335, 6-(2-amino-6-fluoro-5-(2-isopropyl-1,2,3,4-tetrahydroisoquinolin-7-yl)pyridin-3-yl)-3,4-dihydroisoquinolin-1(2H)-one]: the half-maximal inhibitory concentration (IC50) on Lck (h) is above 1000 nM; in experiment [1] it was 11 to 100 nM.
Consider `CN1CCN(c2ccc(-c3cc(-c4ccc5c(c4)CCNC5=O)c(N)nc3F)cc2)CC1` [I-8, 6-(2-amino-6-fluoro-5-(4-(4-methylpiperazin-1-yl)phenyl)pyridin-3-yl)-3,4-dihydroisoquinolin-1(2H)-one], for which the values for the half-inhibitory concentration (IC50) (on Lck (h); in experiment [1]) were above 1000 nM and 0.1 to 10 nM, respectively.
On the same counts, the results for `Nc1nc(F)c(-c2ccc(C3CCOCC3)c([C@@H]3CCCN3)c2)cc1-c1ccc2c(=O)[nH]ccc2c1` [I-370, (S)-6-(2-amino-6-fluoro-5-(3-(pyrrolidin-2-yl)-4-(tetrahydro-2H-pyran-4-yl)phenyl)pyridin-3-y)isoquinolin-1(2H)-one] are above 1000 nM and 0.1 to 10 nM.
On the same counts, the results for `Nc1nc(F)c(-c2ccc(C3CCN(CC(F)F)CC3)cc2)cc1-c1cc2c(cc1F)C(=O)NCC2` [I-256, 6-(2-amino-5-(4-(1-(2,2-difluoroethyl)piperidin-4-yl)phenyl)-6-fluoropyridin-3-yl)-7-fluoro-3,4-dihydroisoquinolin-1(2H)-one] are above 1000 nM and 0.1 to 10 nM.
Regarding `CC(C)N1CC=C(c2ccc(-c3cc(-c4cc5c(cc4F)C(=O)NCC5)c(N)nc3F)cc2)CC1` [I-295, 6-(2-amino-6-fluoro-5-(4-(1-isopropyl-1,2,3,6-tetrahydropyridin-4-yl)phenyl)pyridin-3-yl)-7-fluoro-3,4-dihydroisoquinolin-1(2H)-one], the IC50 at Lck (h) is above 1000 nM; in experiment [1] it was 0.1 to 10 nM.
As to `CN1CCN(c2ccc(-c3cc(-c4ccc5c(c4)CCNC5=O)c(N)nc3F)cc2F)CC1` [I-40, 6-(2-amino-6-fluoro-5-(3-fluoro-4-(4-methylpiperazin-1-yl)phenyl)pyridin-3-yl)-3,4-dihydroisoquinolin-1(2H)-one], the IC50 is above 1000 nM on Lck (h) and 0.1 to 10 nM in experiment [1].
The like results for `Nc1nc(F)c(-c2ccc(C3CCCN(CC(F)F)C3)cc2)cc1-c1ccc2c(c1)CCNC2=O` (stereo not drawn) [I-78, 6-(2-amino-5-(4-(1-(2,2-difluoroethyl)piperidin-3-yl)phenyl)-6-fluoropyridin-3-yl)-3,4-dihydroisoquinolin-1(2H)-one] were, in that order, above 1000 nM and 0.1 to 10 nM.
The like results for `CC(C)[C@@H]1CN(c2ccc(-c3cnc(N)c(-c4ccc5c(c4)CCNC5=O)c3F)c(F)c2)CCO1` [I-6, (R)-6-(2-amino-4-fluoro-5-(2-fluoro-4-(2-isopropylmorpholino)phenyl)pyridin-3-yl)-3,4-dihydroisoquinolin-1(2H)-one] were, in that order, above 1000 nM and 11 to 100 nM.
